US5204364A, “N-imidazolyl- and N-imidazolylmethyl-derivatives of substituted bicyclic compounds” (Farmitalia Carlo Erba, S.r.l., priority 1988, dated 1993)
Like-named read-outs stand apart in the source and are kept apart here.

What was measured:
[1] = tested on: TxA2 synthase; test: TxB2 synthesis (TxA2 synthase activity) in whole blood of normal rats during clotting, in vitro; assay type: cell-based, rat (Sprague Dawley); details: Rattus norvegicus, read-out: In vitro effect on TxB2 synthesis in normal rats, IC50
Description: The compounds of formula (I) were for example tested for their ability to inhibit TxA2 synthase activity (as reflected by TxB2 generated in whole blood during clotting) in vitro in the rat.
The effect of a representative group of compounds according to the present invention on TxB2 synthesis was evaluated in comparison with known products in whole blood of normal Sprague Dawley rats (Charles River Italy). Blood was withdrawn from the abdominal aorta of the animals under light ether anaesthesia. The blood was immediately divided in portions of 0.5 ml and distributed in glass tubes each containing a concentration of the test compound, or of the reference compounds.
Samples were then allowed to clot for 1 hour at 37° C., centrifuged at 3000 rpm for 10 min, serum collected and stored at -20° C. until assayed.

[2] = orientative acute toxicity, single oral administration; details: in vivo, fasted mice and rats, assessed on the seventh day
Description: The toxicity of the compounds of the invention is negligible, therefore they can be safely used in therapy. Mice and rats which had been deprived of food for nine hours were treated orally with single administrations of increasing doses of compounds of the invention, then housed and normally fed. The orientative acute toxicity (LD50) was assessed on the seventh day after the treatment and e.g. in the compound added as FCE 26572, was higher than 800 mg/kg.

[3] = whole blood, clotted 1 hour at 37° C., TxB2 by RIA, limits for p = 0.95

| SMILES | IC50 [1, 3] | other results |
| --- | --- | --- |
| CC(=O)Oc1ccccc1C(=O)O [ASA, Acetyl salicyclic acid, reference compound] | – | IC50 ([1]; 1 h): 31 µM |
| O=C(O)c1ccc2c(c1)C=C(n1ccnc1)CC2 [FCE 22178, 5,6dihydro-7-(1H-imidazol-1-yl)-2-naphthalenecarboxylic acid, reference compound] | 1 µM | – |
| CC1=C(n2ccnc2)CCc2ccc(C(=O)O)cc21 [FCE 25672, 5,6-dihydro-7-(1H-imidazol-1-yl)-8-methyl-2-naphthalenecarboxylic acid] | 0.29 µM | – |
| C=C1c2cc(C(=O)O)ccc2CCC1n1ccnc1 (stereo not drawn) [FCE 26252, 5,6,7,8-tetrahydro-7-(1H-imidazol-1-yl)-8-methylene-2-naphthalenecarboxylic acid] | 0.74 µM | – |
| CC1=C(Cn2ccnc2)CCc2ccc(C(=O)O)cc21 [FCE 26333, 5,6-dihydro-7-(1H-imidazol-1-ylmethyl)-8-methyl-2-naphthalenecarboxylic acid] | 0.043 µM | – |
| CC1=C(n2ccnc2)CCc2ccc(C(=O)O)cc21 [FCE 26572] | – | LD50 at 168 h [2]: > 800 mg/kg |
